Literature values in patent US9452976B2, “Pactamycin analogs and methods of making thereof” (Oregon State University, priority 2007, dated 2016).

What was measured:
[1] = system: Gram-positive and Gram-negative bacteria
[2] = system: tumor
[3] = reason clinical application was abandoned

Q: With CC(=O)c1cccc(N[C@H]2[C@H](N)[C@]3(NC(=O)O[C@H]3C)[C@@](C)(O)[C@@]2(O)COC(=O)c2c(C)cccc2O)c1 [pactamycate] as the molecule, how does the “bioactivity of the cyclic derivative formed by attack of C-7 hydroxyl on the carbamoyl carbonyl” value [1] read?
A: Its value is “inactive”.

Q: With CC[C@]1(NC(=O)N(C)C)[C@@H](N)[C@H](Nc2cccc(C(C)=O)c2)[C@](O)(COC(=O)c2c(C)cccc2O)[C@]1(C)O [7-Deoxypactamycin, 7-deoxypactamycin] as the molecule, how does the “activity against a number of Gram-positive and Gram-negative bacteria, compared with pactamycin” value ([1]; relative to pactamycin) read?
A: The value was “equally active”.

Q: For CC(=O)c1cccc(N[C@H]2[C@H](N)[C@@](NC(=O)N(C)C)([C@H](C)O)[C@@](C)(O)[C@@]2(O)COC(=O)c2c(C)cccc2O)c1 [Pactamycin, pactamycin], which “antibacterial activities against Gram-positive and Gram-negative bacteria” value ([1]; Bhuyan, Appl. Microbiol. 1962) is on record?
A: The value was “potent antibacterial activities”.

Q: What about the anti-tumor activity [2] of the same molecule?
A: Its anti-tumor activity is “strong anti-tumor activity”.

Q: And the toxicity [3]?
A: Its toxicity is “high toxicity”.
